Experimental data published in paper PMC4459817, “Vasculotide reduces endothelial permeability and tumor cell extravasation in the absence of binding to or agonistic activation of Tie2” (EMBO Molecular Medicine, 2015).

System: residual and metastatic LM2-4luc disease after resection
Experiment: orthotopic LM2-4luc xenografts with surgical resection of primary tumor (adjuvant setting)
Type: in vivo, human LM2-4luc cells in CB-17 SCID mice
Text: A second orthotopic implantation experiment involved surgical resection of primary LM2-4^luc tumors (∽400 mm^3) at 17DPI (Fig6) to model post-operative metastases arising from minimal residual disease (MRD). MRD includes the regrowth of incompletely resected mammary tumors, as well as circulating or disseminated tumor cells released from primary tumors prior to or at the time of surgical resection. VT was initiated 6 days prior to surgery and maintained chronically, while adjuvant SU (1-week or 3-week 60 mg/kg/day) treatments were initiated 1 day post-surgery (Fig6A).
In vivo experiments were performed in strict accordance with protocols approved by the Sunnybrook Research Institute Animal Care Committee, accredited by the Canadian Council of Animal Care. All surgical, imaging, and euthanasia procedures were performed under inhaled isoflurane anesthesia. Experimental metastasis models involved injections of 10^6 tumor cells, suspended in 200 μl serum-free DMEM, into the mouse tail vein. LM2-4^luc implantations were performed on 6 to 8-week-old female CB-17 SCID mice (Charles River Canada). HT29^luc implantations were performed on 19- to 20-week-old male and 11- to 12-week-old female YFP-SCID mice (bred in-house). SN12^luc implantations were performed on 9-week-old male YFP-SCID mice. Spontaneous metastasis models involved orthotopic implantations of 2 × 10^6 LM2-4^luc cells/50 μl serum-free DMEM in the right inguinal mammary fat pads of 6-week-old female CB-17 SCID mice.
Sunitinib malate (SU), from Pfizer or LC Laboratories, and its vehicle were formulated as described before (Ebos et al, [2009]). SU was administered by oral gavage (PO), once daily, at a dose of 60 mg/kg mouse weight. Vasculotide (VT): VT synthesized at the Sunnybrook Research Institute (Toronto, ON, Canada) was used in experiments described in Fig2(A–D) and Supplementary Fig S5(A and B). VT synthesized by American Peptide (Sunnyvale, CA, USA) was used in experiments described in Fig5. VT synthesized by Bachem UK Ltd was used in experiments described in Figs1, 2(E–H), 3, 4, 6–9, Supplementary Figs S2, and S5(C and D). Lyophilized product was reconstituted in PBS to 500 μg/500 μl stock aliquots and stored at −80°C. As needed, stock aliquots were diluted with PBS to a 250 ng/50 μl working concentration and stored in 0.4–1 ml aliquots at −80°C. VT (at a standard dose of 250 ng/mouse) or its vehicle (PBS) was administered to mice by intraperitoneal (IP) injections every other day.
5. Bioluminescence imaging (BI) of tumor burden
For in vivo BI: Mice were injected intraperitoneally with 150mg/kg luciferin (Promega) 10 minutes prior to and anesthetized with isofluorane just before luminescent pseudocolor imaging (uniform settings: CCD camera locked at -105 °C, exposure=60s, f/1, subject size=1.5cm, bin=8, FOV=23.2cm, full image correction) using the IVIS 200 Imaging System (Caliper/PerkinElmer). Using the Living Image software (v2.50.1, Xenogen), weekly images were analyzed under uniform color range on grayscale photographic overlay. Total fluxes (photons/sec) were quantified within consistent regions of interest and statistically compared ideally at a timepoint before any deaths have occurred.
For ex vivo BI: Mice were sacrificed at 7 mins after luciferin injections, then organs of interest were dissected and individually placed within 24-well plates for imaging at 10 min post-luciferin injection.
6. Immunohistochemical (IHC) analysis of lung metastases […]

Compound | thoracic metastases benefit (10 days after discontinuation of 1-week SU, Fig6C) | abdominal tumor growth vs. thoracic metastatic dissemination (adjuvant SU, Fig6C, D) | tumor bioluminescence, VT combined with 1-wk SU (Fig6C and D) | survival advantage (VT monotherapy, Plog-rank = 0.42, Fig6A) | thoracic metastatic dissemination vs. abdominal tumor growth (thoracic P = 0.04, abdominal P > 0.05 for VT, Fig6C, D)
CCN(CC)CCNC(=O)c1c(C)[nH]c(/C=C2\C(=O)Nc3ccc(F)cc32)c1C [sunitinib, reference compound] | no benefit was observed with respect to thoracic metastases | more effective at inhibiting abdominal tumor growth (Fig6D) than thoracic metastatic dissemination |  |  | 
CHHHRHSF [Vasculotide, 4-armed maleimide-functionalized polyethylene glycol (PEG) backbone to link together four cysteine-capped T7 peptides, that is, CHHHRHSF] |  |  | lowered tumor bioluminescence to a similar extent as 3-wk SU monotherapy | not statistically significant | more effective at inhibiting thoracic metastatic dissemination (Fig6C, P = 0.04) than abdominal tumor growth (Fig6D, P > 0.05)
